Measurements taken from article PMC7490411 (Signal Transduction and Targeted Therapy, 2020).

Tests used:
[1] = test system: BTK Y223 autophosphorylation; assay: signaling pathway western blot in TMD8, REC-1 and DOHH2 cells; type: cell-based; conditions: 4 h
Text: The cells were then washed in PBS and lysed in cell lysis buffer. BTK, Phospho-BTK(Tyr223), PLCγ2, Phospho-PLCγ2 (Tyr1217), Phospho-AKT […], Phospho-NF-κB p65(Ser536), ERK, Phospho-p44/42MAPK (ERK1/2) (Thr202/Tyr204), AKT and GAPDH antibody (Cell signaling Technology) were used for immunoblotting.

[2] = rat 14-day dose escalation subacute toxicity study; type: in vivo; conditions: rats, up to 800 mg/kg/day, continuous 14 days
Experimental: The subacute toxicity study of CHMFL-BTK-85 was conducted on SD rats, 200g in weight and five weeks in age. All mice were purchased from Gempharmatech Co., Ltd (Nanjing, China). All animals were housed in a specific pathogen-free facility and used according to the animal care regulations of Hefei Institutes of Physical Science Chinese Academy of Sciences. CHMFL-BTK-85 was delivered daily in a HKI solution (0.5% Methocellulose/0.4% Tween 80 in ddH2O) by orally gavage. Body weight was measured daily after CHMFL-BTK-85 treatment.

[3] = test system: TMD8 cell (DLBCL)-inoculated xenograft; assay: TMD8 cell subcutaneous xenograft tumor model; type: in vivo
[4] = drug enrichment in the tumor; type: in vivo, mouse; conditions: 100 mg/kg
ABL1-nonphosphorylated = assay: KINOMEscan; type: binding; conditions: 1000 nM
ADCK3 = assay: KINOMEscan; type: binding; conditions: 1000 nM
AURKB = assay: KINOMEscan; type: binding; conditions: 1000 nM
CDC2L5 = assay: KINOMEscan; type: binding; conditions: 1000 nM
CLK3 = assay: KINOMEscan; type: binding; conditions: 1000 nM
CLK4 = assay: KINOMEscan; type: binding; conditions: 1000 nM
CSF1R-autoinhibited = assay: KINOMEscan; type: binding; conditions: 1000 nM
DAPK3 = assay: KINOMEscan; type: binding; conditions: 1000 nM
DCAMKL2 = assay: KINOMEscan; type: binding; conditions: 1000 nM
DLK = assay: KINOMEscan; type: binding; conditions: 1000 nM
DYRK1A = assay: KINOMEscan; type: binding; conditions: 1000 nM
EPHA6 = assay: KINOMEscan; type: binding; conditions: 1000 nM
ERBB2 = assay: KINOMEscan; type: binding; conditions: 1000 nM
FLT3(ITD,D835V) = assay: KINOMEscan; type: binding; conditions: 1000 nM
FLT4 = assay: KINOMEscan; type: binding; conditions: 1000 nM
FRK = assay: KINOMEscan; type: binding; conditions: 1000 nM
GCN2(Kin.Dom.2,S808G) = assay: KINOMEscan; type: binding; conditions: 1000 nM
GRK2 = assay: KINOMEscan; type: binding; conditions: 1000 nM
GSK3B = assay: KINOMEscan; type: binding; conditions: 1000 nM
HIPK3 = assay: KINOMEscan; type: binding; conditions: 1000 nM
KIT = assay: KINOMEscan; type: binding; conditions: 1000 nM
MARK3 = assay: KINOMEscan; type: binding; conditions: 1000 nM
MINK = assay: KINOMEscan; type: binding; conditions: 1000 nM
MLCK = assay: KINOMEscan; type: binding; conditions: 1000 nM
MLK1 = assay: KINOMEscan; type: binding; conditions: 1000 nM
MYO3A = assay: KINOMEscan; type: binding; conditions: 1000 nM
NEK3 = assay: KINOMEscan; type: binding; conditions: 1000 nM
NEK5 = assay: KINOMEscan; type: binding; conditions: 1000 nM
PDPK1 = assay: KINOMEscan; type: binding; conditions: 1000 nM
PIK3CA(E542K) = assay: KINOMEscan; type: binding; conditions: 1000 nM
PIK3CA(E545K) = assay: KINOMEscan; type: binding; conditions: 1000 nM
PIK3CA(M1043I) = assay: KINOMEscan; type: binding; conditions: 1000 nM
PKNB(M.tuberculosis) = assay: KINOMEscan; type: binding; conditions: 1000 nM
PRKD1 = assay: KINOMEscan; type: binding; conditions: 1000 nM
PRKG2 = assay: KINOMEscan; type: binding; conditions: 1000 nM
RIPK5 = assay: KINOMEscan; type: binding; conditions: 1000 nM
[5] = test system: RSK4(Kin.Dom.2-C-terminal); assay: KINOMEscan; type: binding; conditions: 1000 nM
S6K1 = assay: KINOMEscan; type: binding; conditions: 1000 nM
SIK = assay: KINOMEscan; type: binding; conditions: 1000 nM
SYK = assay: KINOMEscan; type: binding; conditions: 1000 nM
TEC = assay: KINOMEscan; type: binding; conditions: 1000 nM
TNIK = assay: KINOMEscan; type: binding; conditions: 1000 nM
TRKB = assay: KINOMEscan; type: binding; conditions: 1000 nM
YANK3 = assay: KINOMEscan; type: binding; conditions: 1000 nM

C=CC(=O)Nc1cc(Nc2cc(-c3cccc(NC(=O)c4cc5c(s4)CCCC5)c3C)cn(C)c2=O)ccc1N1CCN(CC)CC1 [CHMFL-BTK-85]
concentration blocking BTK Y223 autophosphorylation [1]: < 10 nM | tolerability in dose escalation study [2]: well tolerated | TGI ([3]; TMD8 xenograft, 100 mg/kg/day, 28 days): 96% | toxicity signs in TMD8 xenograft model ([3]; mouse, body weight monitoring): no weight loss or any other obvious signs of toxicity | concentration in the tumor [4]: 2370 nM | Percent Control (ABL1-nonphosphorylated): 76% | Percent Control (ADCK3): 78% | Percent Control (AURKB): 100% | Percent Control (CDC2L5): 100% | Percent Control (CLK3): 80% | Percent Control (CLK4): 96% | Percent Control (CSF1R-autoinhibited): 100% | Percent Control (DAPK3): 65% | Percent Control (DCAMKL2): 88% | Percent Control (DLK): 100% | Percent Control (DYRK1A): 100% | Percent Control (EPHA6): 100% | Percent Control (ERBB2): 99% | Percent Control (FLT3(ITD,D835V)): 100% | Percent Control (FLT4): 97% | Percent Control (FRK): 19% | Percent Control (GCN2(Kin.Dom.2,S808G)): 75% | Percent Control (GRK2): 100% | Percent Control (GSK3B): 100% | Percent Control (HIPK3): 100% | Percent Control (KIT): 92% | Percent Control (MARK3): 100% | Percent Control (MINK): 88% | Percent Control (MLCK): 100% | Percent Control (MLK1): 81% | Percent Control (MYO3A): 93% | Percent Control (NEK3): 80% | Percent Control (NEK5): 100% | Percent Control (PDPK1): 77% | Percent Control (PIK3CA(E542K)): 99% | Percent Control (PIK3CA(E545K)): 98% | Percent Control (PIK3CA(M1043I)): 71% | Percent Control (PKNB(M.tuberculosis)): 88% | Percent Control (PRKD1): 100% | Percent Control (PRKG2): 95% | Percent Control (RIPK5): 98% | Percent Control [5]: 83% | Percent Control (S6K1): 100% | Percent Control (SIK): 99% | Percent Control (SYK): 100% | Percent Control (TEC): 100% | Percent Control (TNIK): 99% | Percent Control (TRKB): 100% | Percent Control (YANK3): 89%
